Here are results for one molecule from patent publication US5952390A, “10-substituted 1,8-dihydroxy-9(10H) anthracenone pharmaceuticals” (Teva Pharmaceutical Industries Ltd., priority 1998, dated 1999).

A value given as a limit tells only on which side of the number the result lay.

The nature of data set [1]: Reducing activity toward DPPH. The note with it: Table I (Addendum); equimolar amount of test compound. As to the method: This assay followed generally the procedures of Blois, M. S., "Antioxidant Determinations by the Use of a Stable Free Radical", Nature, 181, 1199-1200 (1958) and Kato, K. et al., "Studies on Scavengers of Active Oxygen Species. 1. Synthesis and Biological Activity of 2-O-Alkylascorbic Acids", J. Med. Chem., 31, 793-798 (1988). In time studies, 1 ml of test compound solution (10^-4 M) was added to 1 ml of DPPH solution (10^-4 M), each in acetone/PBS (1+1 V/V), and the reduction of DPPH was followed spectrophotometrically at 516 nm. Plots of the reciprocal of DPPH concentrations against time gave straight lines, and the second-orderrate constants were obtained from the slopes and are expressed as mean values (n=3-6). In the cases where DPPH was very fast approximate values are given and expressed as kDPPH >100 or kDPPH >>100M^-1s^-1.
Because a radical scavenging antioxidant reacts rapidly with the stable free radical 2,2-diphenyl-1-picrylhydrazyl (DPPH), Blois, M. S., "Antioxidant Determination by the Use of a Stable Free Radical", Nature, 181, 1199-1200 (1958); Kato, K. et al., "Studies on Scavengers of Active Oxygen Species. I. Synthesis and Biological Activity of 2-O-Alkylascorbic Acids", J. Med. Chem., 31, 793-798 (1988), the reactivities of the new compounds with DPPH were determined by decrease in absorbance at 516 nm.

Data set [2] in a line: Lipid peroxidation in bovine brain phospholipid liposomes. The note with it: Table I (Addendum); n = 3 or more; standard errors average 20%; read-out: LPO IC50. The procedure: Phospholipids were prepared essentially as described by Gutteridge, J. M. C., "The Measurement of Malondialdehyde in Peroxidised Ox-Brain Phospholipid Liposomes", Anal. Biochem., 82, 76-82 (1977). Bovine brain, cooled on ice, was freed from blood vessels and washed repeatedly with 0.15M NaCl, pH 7.4. It was cut to pieces and then macerated with an ultra-turrax, passed through a close-meshed sieve, and extracted four times with four times the volume of acetone. The extraction mixture was filtered by suction to remove the acetone, the residue was dried under vacuum, and then repeatedly extracted with petroleum ether (40-60) using twice the volume of the original brain homogenate. The combined extracts were filtered, dried at 45° C., and dissolved in ether (one fifth of the original brain volume). The mixture was treated with five times the volume of acetone, and the resulting precipitate was collected by suction-filtration, dried and stored under N2 at -20° C. in the dark. Bovine brain phospholipids were weighed into glass tubes and shaken in a vortex mixer (Heidolph) in the presence of five small glass beads (.phi. 4 mm) for 1 min. […]
The following reagents were added to glass tubes in the order and at the final concentrations stated. […] The organic layer was separated by centrifugation at 3000 rpm (15 min) and the absorbance at 532 nm was measured against butanol.

Data set [3] has as its system HaCaT cells. The data set can be described thus: HaCaT keratinocyte proliferation assay. It is filed as cell-based. The conditions noted are these: Homo sapiens, Table IV, N = 3, P < 0.01, read-out: AA IC50 (antiproliferative activity). The text has this:
(§1) The biological assay methods were as follows: LDH release as described in Muller K, Huang H-S, Wiegrebe W, J. Med. Chem. 39, 3132-3138 (1996); bovine PMNL 5-LO assay as described in Muller K, Gurster D, Piwek S, Wiegrebe W, J. Med. Chem. 36, 4099-4107 (1993); and degradation of 2-deoxy-D-ribose as described in Muller K, Gurster D, Biochem. Pharmacol. 46, 1695-1704 (1993). HaCaT keratinocyte proliferation assay was generally described in Muller K, Leukel P, Zeireis K, Gawlik I, J. Med. Chem 37, 1660-1669 (1994). Specifically, the HaCaT cells were incubated with the test compounds (2 microM) for four hours at 37° C. Extracellular LDH activity was measured using the UV method with pyruvate and NADH and is expressly in mU/ml. Appropriate controls with the vehicle were performed (P<0.01; N=3, SD<10%).

For data set [4], the system named is HaCaT cells. The data set can be described thus: LDH release in HaCaT cells. The data set is classed as cell-based.
Excerpt: as §1
Geisel J.; Mahrle, G. "Lactate dehydrogenase release as an indicator of dithranol-induced membrane injury in cultured human keratinocytes", Arch. Dermatol. Res., 282, 325-329 (1990)). Cytotoxicity against cell cultures by the potent cell growth inhibitors was assessed by the activity of lactate dehydrogenase (LDH) activity release into the culture medium. The release of LDH is commonly used as an indicator of plasma membrane damage.
(In general: LDH leaks from cells whose membrane has failed.)

A short description of data set [5]: Stability at pH 7.4 in phosphate buffer under lipoxygenase assay incubation. It is filed as physicochemical. The conditions noted are these: pH 7.4, phosphate buffer, lipoxygenase assay conditions. The procedure: In connection with confirming the resistance to metabolic degradation of the compounds of the invention, the following procedures will be of interest. C-10-acylated compounds of Tanzer et al., Arch. Pharm., 322, 441-444 (1989) were determined to be stable at pH 7.5 when incubated for glucose-6-phosphate dehydrogenase inhibition assays. […] The compounds of the present invention are stable at pH 7.4 (in phosphate buffer) when incubated for the lipoxygenase assay. […] These procedures are expected to be useful in confirming the metabolic stability of the compounds of the invention.

The test system of data set [6] is LTB4 production in human neutrophils. The conditions noted are these: depending on cell density; cited from earlier work.
For data set [7] the following is noted: pH 7.5; cited from earlier work.
Another data set has as its system psoriasis. The note with it: in vivo; cited from earlier work.
The next data set has as its system skin. The note with it: topical/therapeutic application; cited from earlier work.
Data set [8] has as its system cultured human keratinocytes. The note with it: cited from earlier work.

What is called IC50 is the midpoint of a concentration-inhibition curve. As for `O=C1c2c(O)cccc2Cc2cccc(O)c21` [Anthralin, 1,8-dihydroxy-9(10H)-anthracenone], the kDPPH in data set [1] came out at 24.2 ± 4.2 M⁻¹ s⁻¹. The values for the IC50 (in [2]; with HaCaT cells [3]; in data set [6]) were 12 µM, 0.7 µM and 7 to 74 µM, respectively. Also, in the data set with HaCaT cells [4] (2 microM, 37° C., four hours), the “LDH release versus vehicle control, in words” value is listed as “significantly exceeded that of the vehicle control”. Also, the LDH release with HaCaT cells [4] (Table IV, 2 μM test compound, N = 3, SD < 10%) is 294 mU; with HaCaT cells [4] (Table V, 2 μM test compound (Example 8)), 294 mU. For the same molecule, in [5], the time to degradation is at most 2 h. The “stability under G6PD inhibition assay incubation, in words” value in data set [7] is “degraded almost completely”. Further, the “antipsoriatic efficacy, in words” value with psoriasis was “effective in the treatment of psoriasis”. For the same molecule, the “irritation, in words” value with skin is “non-affected skin surrounding a psoriatic lesion to which anthralin is applied is frequently irritated”. Further, in data set [8], the “membrane damage, in words” value was “cause membrane damage, but did not directly lead to substantial membrane destruction”.
